This is an account of results in patent publication US10017546B2 (KOREA ADVANCED INSTITUTE OF SCIENCE AND TECHNOLOGY, priority 2015, dated 2018).

Where two headings read alike, the source gives them in different places.

The term Kd denotes the equilibrium constant for the complex coming apart.

The target of assay [1] is Rhizobium etli rhizavidin variant RAWH (RAWH-His6), E115W/S23H (Rhizobium etli, UniProt Q8KKW2, E135W/S43H). Briefly: Kd measurement by competition binding for [^3H]biotin against streptavidin, RAWH.
Rhizobium etli rhizavidin variant RAWH (RAWH-His6), E115W/S23H, sequence (Q8KKW2 entry or part of it S43H/E135W): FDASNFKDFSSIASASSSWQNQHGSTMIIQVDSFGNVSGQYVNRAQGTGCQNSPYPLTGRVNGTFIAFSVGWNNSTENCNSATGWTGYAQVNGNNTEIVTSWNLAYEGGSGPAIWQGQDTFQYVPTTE
Protocol: (§1) Mixtures were incubated at 37° C. for 20 h to reach equilibration. […] After 1 h incubation at room temperature, the beads were cleared by centrifugation at 13,000 rpm for 1 min. […] Samples were heated to 95° C. for 30 min, and then counted in a liquid scintillation counter. The Kd ratios between competing avidin proteins were calculated with Matlab (Mathworks) using the foregoing formula (Qureshi, M. H. & Wong, S. L. Protein Expr. Purif. 25, 409-415 (2002)).
Assay [2] deals with Rhizobium etli rhizavidin variant monodin (MA), monomeric, A67D/G71K/A82N/G84Q/S101R/A105K + S23H/Q46E/E115W, SEQ ID NO: 3 (Rhizobium etli, UniProt Q8KKW2, A102N/A125K/A87D/E135W/G104Q/G91K/Q66E/S121R/S43H). Briefly: [^3H]biotin off-rate assay, monodin. The assay is classed as binding. The note with it: free [^3H]biotin, excess cold biotin, 37° C. The protocol:
[^3H]Biotin Off-Rate Assay
At time-points taken over 5 h at 37° C., 150 μL of aliquots were removed, and added to 600 μL of 0.2 M ZnSO4 (chilled with ice), followed by addition of 600 μL of 0.2 M NaOH. […] Dissociation rates were deduced as discussed above.

The target in assay [3] is Rhizobium etli rhizavidin variant monodin (MA, MA-His6), monomeric, A67D/G71K/A82N/G84Q/S101R/A105K + S23H/Q46E/E115W, SEQ ID NO: 3 (Rhizobium etli, UniProt Q8KKW2, A102N/A125K/A87D/E135W/G104Q/G91K/Q66E/S121R/S43H). Briefly: Kd measurement by competition binding for [^3H]biotin against RAWH, monodin.
Rhizobium etli rhizavidin variant monodin (MA, MA-His6), monomeric, A67D/G71K/A82N/G84Q/S101R/A105K + S23H/Q46E/E115W, SEQ ID NO: 3, sequence (Q8KKW2 entry or part of it S43H/Q66E/A87D/G91K/A102N/G104Q/S121R/A125K/E135W): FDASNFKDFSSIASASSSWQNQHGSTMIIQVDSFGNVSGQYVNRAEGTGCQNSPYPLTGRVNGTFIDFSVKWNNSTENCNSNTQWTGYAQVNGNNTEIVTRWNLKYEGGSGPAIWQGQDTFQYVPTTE
Protocol: as §1
Another assay concerns biotin-DNA. Briefly: Gel-based off-rate measurement against biotin-DNA-fluorescein. It is filed as binding. The following applies: 10 h.
A further assay deals with biotin-GFP (Aequorea victoria, UniProt P42212, A206V/E111V/F223Y/F64L/F99S/I128T/I167V/I171V/K158E/K166T/K26E/L221H/M153T/N105K/N149D/N164E/Q80R/S205T/S30R/S65T/T225N/V163A/Y145F/Y39I). The following applies: Biotin-GFP. On the procedure: After incubation at the indicated temperature (23° C., 37° C., or 45° C.) for varying time points (between 0 to 10 h), protein-conjugate mixtures were loaded onto a 15% native polyacrylamide gel. […] Data as ln(fraction bound) versus time and fitting the data to a straight line by linear regression.

The next assay deals with HeLa cells. Briefly: Clustering and internalization of biotinylated cell-surface proteins. It is filed as cell-based. The following applies: Cy5-labeled avidin proteins, 37° C. On the procedure:
Following biotinylation, the cells were washed twice with cold PBS-CM, treated with 100 mM glycine in PBS-CM for blocking, and washed again twice with cold PBS. […] Unbound avidin proteins were removed, and media was replaced with pre-warmed DMEM (37° C.). Cells were incubated for 5, 10, or 30 m at 37° C. Cells were washed, and fixed with 4% formaldehyde in PBS for confocal imaging (ZEISS, LSM510 META). To visualize endosome or lysozome-specific proteins, cells were fixed, permeabilized, and incubated with a primary antibody: anti-Rab11 (a GTPase of recycling endosome, Abcham) or anti-LAM P1 (Lysosomal-associated membrane protein 1, Abcham). Afterward, cells were incubated with a fluorescent secondary antibody (goat anti-rabbit 555, Abcham), and images were acquired with a confocal microscopy (ZEISS, LSM510 META).

Rhizobium etli rhizavidin variant monodin (MA), monomeric, A67D/G71K/A82N/G84Q/S101R/A105K + S23H/Q46E/E115W, SEQ ID NO: 3, sequence (Q8KKW2 entry or part of it S43H/Q66E/A87D/G91K/A102N/G104Q/S121R/A125K/E135W): as above

`O=C(O)CCCC[C@@H]1SC[C@@H]2NC(=O)N[C@@H]21` [[^3H]biotin] [listing 1 of 2 here] showed an equilibrium dissociation constant (Kd) in assay [1] of 0.0069 nM.

In the case of `O=C(O)CCCC[C@@H]1SC[C@@H]2NC(=O)N[C@@H]21` [[^3H]biotin] [listing 2 of 2 here], the off-rate in assay [2] was 1.2±0.3×10^−5 s^−1.

On to `O=C(O)CCCC[C@@H]1SC[C@@H]2NC(=O)N[C@@H]21` [biotin], for which the Kd in assay [3] amounted to 0.031 ± 0.01 nM.

With “Neutravidin (NA): tetrameric neutravidin (Pierce) [reference compound]”, the “percentage of dissociated biotin conjugate after 10 h incubation with excess biotin” value in the assay with biotin-DNA (23° C.) is given as 11 ± 4.4% for 10 h*; in the assay with biotin-DNA (37° C.), 20 ± 0.2% for 10 h*; in the assay on biotin-DNA (37° C., listed as neutravidin) it was “about 20%”; in the assay with biotin-GFP (23° C.), 6.8 ± 1.6% for 10 h*; in the assay with biotin-GFP (37° C.), 16 ± 3.8% for 10 h*; with biotin-GFP (45° C.), 32 ± 5.0% for 10 h*.

Consider “Streptavidin (STA): tetrameric streptavidin, purchased from Abcam [reference compound]”, for which the “percentage of dissociated biotin conjugate after 10 h incubation with excess biotin” value is 6.8 ± 1.8% for 10 h* in the assay with biotin-DNA (23° C.); 17 ± 1% for 10 h* in the assay with biotin-DNA (37° C.); “about 20%” in the assay on biotin-DNA (37° C., listed as streptavidin); 4.7 ± 0.3% for 10 h* in the assay with biotin-GFP (23° C.); 22 ± 4.4% for 10 h* with biotin-GFP (37° C.). The Dissociation rate with biotin-GFP (45° C., excess biotin) was 1.9 ± 0.2 × 10^−5 s^−1. In the assay on HeLa cells, the “incubation time after which avidin protein was internalized” value was 10 min.
